Results reported in ChEMBL document CHEMBL4507282, “Data for DCP probe BI-1950” (2021).

Legend:
[1] = target: Muscarinic acetylcholine receptor M5 (Homo sapiens) (UniProt P08912); conditions: Compound concentration 10.0 uM
[2] = target: Alpha-2A adrenergic receptor (Homo sapiens) (UniProt P08913); conditions: Compound concentration 10.0 uM
[3] = target: Alpha-1D adrenergic receptor (Homo sapiens) (UniProt P25100); conditions: Compound concentration 10.0 uM
[4] = target: Voltage-dependent L-type calcium channel subunit alpha-1C (DHP site) (Rattus norvegicus, UniProt P22002); test: CA+/DHPSI/RA Eurofins-Panlabs selectivity data (BI); conditions: read-out: % Ctrl
[5] = target: Serotonin 2 (5-HT2) receptor (Rattus norvegicus) (UniProt P30994+P08909+P14842); test: 5HT2/R Eurofins-Panlabs selectivity data (BI); type: protein assay; conditions: Compound concentration 10.0 uM
[6] = target: 5-hydroxytryptamine receptor 6 (Homo sapiens) (UniProt P50406); test: 5HT6/HU Eurofins-Panlabs selectivity data (BI); conditions: Compound concentration 10.0 uM
[7] = target: T1, Thromboxane-A synthase (Homo sapiens) (UniProt P24557); test: THRO SYN(HU) Eurofins-Panlabs selectivity data (BI)
T1 sequence (whole entry): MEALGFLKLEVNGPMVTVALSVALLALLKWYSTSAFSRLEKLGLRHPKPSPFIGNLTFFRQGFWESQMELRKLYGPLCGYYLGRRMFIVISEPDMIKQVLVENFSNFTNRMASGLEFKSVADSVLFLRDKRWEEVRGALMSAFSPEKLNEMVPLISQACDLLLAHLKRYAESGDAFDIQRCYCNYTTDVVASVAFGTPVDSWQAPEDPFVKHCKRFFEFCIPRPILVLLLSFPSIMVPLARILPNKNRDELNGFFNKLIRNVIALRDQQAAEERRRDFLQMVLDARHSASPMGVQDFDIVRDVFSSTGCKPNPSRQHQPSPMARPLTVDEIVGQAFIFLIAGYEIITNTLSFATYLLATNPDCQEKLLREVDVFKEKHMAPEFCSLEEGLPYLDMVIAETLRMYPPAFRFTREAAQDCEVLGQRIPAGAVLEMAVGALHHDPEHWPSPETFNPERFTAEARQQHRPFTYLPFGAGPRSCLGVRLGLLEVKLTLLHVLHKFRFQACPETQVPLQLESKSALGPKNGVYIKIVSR

[8] = target: T2, D(4) dopamine receptor (Homo sapiens) (UniProt P21917); test: D4.2/H Eurofins-Panlabs selectivity data (BI); conditions: Compound concentration 10.0 uM
T2 sequence (whole entry): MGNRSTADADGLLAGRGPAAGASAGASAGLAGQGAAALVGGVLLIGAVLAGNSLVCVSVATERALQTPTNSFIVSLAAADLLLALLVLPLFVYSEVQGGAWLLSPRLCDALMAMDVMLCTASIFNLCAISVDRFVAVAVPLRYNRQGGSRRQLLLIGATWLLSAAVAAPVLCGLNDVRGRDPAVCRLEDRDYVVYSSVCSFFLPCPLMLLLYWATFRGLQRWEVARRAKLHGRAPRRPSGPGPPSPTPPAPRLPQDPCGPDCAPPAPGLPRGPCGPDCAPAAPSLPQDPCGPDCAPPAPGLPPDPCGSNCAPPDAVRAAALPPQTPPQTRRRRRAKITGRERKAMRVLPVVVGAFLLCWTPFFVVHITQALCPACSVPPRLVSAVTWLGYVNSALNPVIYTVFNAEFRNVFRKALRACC

[9] = target: Adrenergic receptor alpha-2 (Rattus norvegicus) (UniProt P22086+P19328+P22909); test: ALPHA2/R Eurofins-Panlabs selectivity data (BI); type: protein assay; conditions: Compound concentration 10.0 uM
[10] = target: D(2) dopamine receptor (Homo sapiens) (UniProt P14416); test: D2L/H Eurofins-Panlabs selectivity data (BI); conditions: Compound concentration 10.0 uM
Sequence of D(2) dopamine receptor (Homo sapiens) (P14416 whole entry): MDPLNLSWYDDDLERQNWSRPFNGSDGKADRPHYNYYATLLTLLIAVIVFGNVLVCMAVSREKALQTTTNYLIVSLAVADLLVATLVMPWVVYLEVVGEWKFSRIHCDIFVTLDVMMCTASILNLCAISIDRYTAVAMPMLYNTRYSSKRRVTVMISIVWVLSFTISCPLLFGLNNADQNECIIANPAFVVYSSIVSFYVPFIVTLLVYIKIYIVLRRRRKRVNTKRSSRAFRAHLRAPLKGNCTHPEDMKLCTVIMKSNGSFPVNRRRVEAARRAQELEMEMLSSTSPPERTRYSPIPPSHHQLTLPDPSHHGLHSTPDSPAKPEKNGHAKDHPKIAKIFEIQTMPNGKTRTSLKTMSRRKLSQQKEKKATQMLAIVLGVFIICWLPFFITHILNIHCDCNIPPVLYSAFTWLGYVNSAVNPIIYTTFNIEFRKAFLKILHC

Sequence of Voltage-dependent L-type calcium channel subunit alpha-1C (DHP site) (P22002 whole entry): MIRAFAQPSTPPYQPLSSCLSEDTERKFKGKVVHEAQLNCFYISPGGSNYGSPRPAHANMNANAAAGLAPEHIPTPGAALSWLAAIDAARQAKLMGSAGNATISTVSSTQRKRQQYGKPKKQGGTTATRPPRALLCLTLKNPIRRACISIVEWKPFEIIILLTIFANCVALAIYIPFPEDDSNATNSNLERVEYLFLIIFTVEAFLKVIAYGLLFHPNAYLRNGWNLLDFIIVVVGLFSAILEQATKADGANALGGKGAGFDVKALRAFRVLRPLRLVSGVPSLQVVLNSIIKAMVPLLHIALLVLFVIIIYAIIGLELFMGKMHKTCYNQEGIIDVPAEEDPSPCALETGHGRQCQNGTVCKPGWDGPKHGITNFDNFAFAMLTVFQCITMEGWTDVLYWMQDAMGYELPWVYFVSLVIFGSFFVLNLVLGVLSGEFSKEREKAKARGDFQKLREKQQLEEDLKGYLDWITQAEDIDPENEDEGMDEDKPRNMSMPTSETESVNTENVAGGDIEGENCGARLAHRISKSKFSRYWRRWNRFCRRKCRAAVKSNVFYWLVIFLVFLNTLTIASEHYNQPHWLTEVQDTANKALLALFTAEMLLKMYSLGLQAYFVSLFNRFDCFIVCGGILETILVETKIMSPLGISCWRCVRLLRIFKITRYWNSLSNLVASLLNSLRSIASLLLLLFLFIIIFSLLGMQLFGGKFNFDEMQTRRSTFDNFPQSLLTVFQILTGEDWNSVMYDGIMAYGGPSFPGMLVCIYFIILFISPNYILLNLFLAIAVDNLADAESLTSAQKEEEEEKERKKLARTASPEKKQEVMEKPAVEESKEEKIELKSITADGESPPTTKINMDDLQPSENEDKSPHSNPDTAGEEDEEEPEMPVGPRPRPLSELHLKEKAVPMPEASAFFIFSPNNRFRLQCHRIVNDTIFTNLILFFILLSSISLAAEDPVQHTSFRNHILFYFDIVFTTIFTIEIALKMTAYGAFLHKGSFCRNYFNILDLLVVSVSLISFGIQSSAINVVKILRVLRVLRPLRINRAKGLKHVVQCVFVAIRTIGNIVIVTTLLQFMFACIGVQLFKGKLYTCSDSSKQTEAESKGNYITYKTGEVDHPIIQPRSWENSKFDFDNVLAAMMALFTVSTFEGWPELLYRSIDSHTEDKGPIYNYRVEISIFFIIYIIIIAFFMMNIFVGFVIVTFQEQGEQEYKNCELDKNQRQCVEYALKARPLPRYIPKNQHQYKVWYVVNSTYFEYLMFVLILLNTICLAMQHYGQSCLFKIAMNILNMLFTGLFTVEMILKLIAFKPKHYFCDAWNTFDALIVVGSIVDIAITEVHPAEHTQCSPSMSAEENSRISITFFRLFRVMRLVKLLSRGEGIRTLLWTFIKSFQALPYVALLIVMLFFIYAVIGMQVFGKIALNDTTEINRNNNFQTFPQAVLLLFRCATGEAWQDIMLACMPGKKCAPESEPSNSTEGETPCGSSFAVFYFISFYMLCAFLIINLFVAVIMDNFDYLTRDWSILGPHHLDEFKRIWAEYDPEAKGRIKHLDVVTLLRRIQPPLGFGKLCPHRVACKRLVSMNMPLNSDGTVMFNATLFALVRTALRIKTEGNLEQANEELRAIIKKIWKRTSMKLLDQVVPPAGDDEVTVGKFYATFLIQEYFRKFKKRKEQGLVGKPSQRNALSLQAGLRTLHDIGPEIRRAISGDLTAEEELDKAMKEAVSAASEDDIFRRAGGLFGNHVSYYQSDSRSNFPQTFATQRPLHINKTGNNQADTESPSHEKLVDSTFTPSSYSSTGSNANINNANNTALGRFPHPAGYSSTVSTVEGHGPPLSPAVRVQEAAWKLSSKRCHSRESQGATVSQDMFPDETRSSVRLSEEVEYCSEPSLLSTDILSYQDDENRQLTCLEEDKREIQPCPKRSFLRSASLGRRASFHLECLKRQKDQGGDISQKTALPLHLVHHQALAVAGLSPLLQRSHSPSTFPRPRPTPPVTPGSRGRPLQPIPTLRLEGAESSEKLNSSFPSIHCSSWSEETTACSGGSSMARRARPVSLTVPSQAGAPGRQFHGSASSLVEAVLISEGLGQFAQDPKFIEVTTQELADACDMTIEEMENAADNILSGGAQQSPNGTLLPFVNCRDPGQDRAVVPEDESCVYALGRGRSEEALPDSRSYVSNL
Sequence of 5-hydroxytryptamine receptor 6 (Homo sapiens) (P50406 whole entry): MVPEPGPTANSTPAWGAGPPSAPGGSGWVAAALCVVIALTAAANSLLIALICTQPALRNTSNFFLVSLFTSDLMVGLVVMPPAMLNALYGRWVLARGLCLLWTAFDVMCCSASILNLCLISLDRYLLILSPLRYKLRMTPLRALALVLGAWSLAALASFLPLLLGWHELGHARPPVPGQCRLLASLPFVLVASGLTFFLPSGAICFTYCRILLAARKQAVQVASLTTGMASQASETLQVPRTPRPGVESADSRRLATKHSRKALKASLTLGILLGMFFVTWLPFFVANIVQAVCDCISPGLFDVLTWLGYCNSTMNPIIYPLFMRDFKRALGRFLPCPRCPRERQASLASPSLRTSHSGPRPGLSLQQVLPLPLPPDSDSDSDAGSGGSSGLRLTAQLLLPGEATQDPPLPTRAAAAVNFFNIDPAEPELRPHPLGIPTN
Sequence of Alpha-1D adrenergic receptor (Homo sapiens) (P25100 whole entry): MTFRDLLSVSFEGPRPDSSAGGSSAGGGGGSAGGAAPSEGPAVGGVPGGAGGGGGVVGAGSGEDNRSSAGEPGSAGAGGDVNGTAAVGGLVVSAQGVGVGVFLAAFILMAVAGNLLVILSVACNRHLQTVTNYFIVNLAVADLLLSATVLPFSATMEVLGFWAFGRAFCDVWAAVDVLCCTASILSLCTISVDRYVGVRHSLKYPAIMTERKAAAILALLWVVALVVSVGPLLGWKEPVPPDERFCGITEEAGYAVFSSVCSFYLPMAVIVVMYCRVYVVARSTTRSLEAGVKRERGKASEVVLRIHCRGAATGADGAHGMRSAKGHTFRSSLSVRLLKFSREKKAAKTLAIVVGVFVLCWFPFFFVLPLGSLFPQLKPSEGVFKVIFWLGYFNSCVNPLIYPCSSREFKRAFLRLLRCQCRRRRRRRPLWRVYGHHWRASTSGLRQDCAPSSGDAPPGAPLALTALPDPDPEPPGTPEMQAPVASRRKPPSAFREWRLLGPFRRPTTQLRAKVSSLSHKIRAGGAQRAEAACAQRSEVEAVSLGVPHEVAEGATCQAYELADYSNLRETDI
Sequence of Serotonin 2 (5-HT2) receptor (Rattus norvegicus) (P08909 whole entry, looked up): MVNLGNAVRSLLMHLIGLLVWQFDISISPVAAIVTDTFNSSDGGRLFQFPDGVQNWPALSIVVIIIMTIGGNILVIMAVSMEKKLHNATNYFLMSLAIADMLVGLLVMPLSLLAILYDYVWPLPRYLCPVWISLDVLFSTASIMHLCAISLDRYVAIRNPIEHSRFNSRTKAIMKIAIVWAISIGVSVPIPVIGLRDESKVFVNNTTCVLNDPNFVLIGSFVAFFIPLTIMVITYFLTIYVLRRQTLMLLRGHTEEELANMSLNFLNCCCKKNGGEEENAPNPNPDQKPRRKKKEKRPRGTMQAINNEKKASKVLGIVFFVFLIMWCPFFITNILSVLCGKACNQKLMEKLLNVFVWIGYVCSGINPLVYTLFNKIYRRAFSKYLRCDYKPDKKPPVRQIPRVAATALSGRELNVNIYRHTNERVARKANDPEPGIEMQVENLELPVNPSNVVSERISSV
Sequence of Serotonin 2 (5-HT2) receptor (Rattus norvegicus) (P14842 whole entry, looked up): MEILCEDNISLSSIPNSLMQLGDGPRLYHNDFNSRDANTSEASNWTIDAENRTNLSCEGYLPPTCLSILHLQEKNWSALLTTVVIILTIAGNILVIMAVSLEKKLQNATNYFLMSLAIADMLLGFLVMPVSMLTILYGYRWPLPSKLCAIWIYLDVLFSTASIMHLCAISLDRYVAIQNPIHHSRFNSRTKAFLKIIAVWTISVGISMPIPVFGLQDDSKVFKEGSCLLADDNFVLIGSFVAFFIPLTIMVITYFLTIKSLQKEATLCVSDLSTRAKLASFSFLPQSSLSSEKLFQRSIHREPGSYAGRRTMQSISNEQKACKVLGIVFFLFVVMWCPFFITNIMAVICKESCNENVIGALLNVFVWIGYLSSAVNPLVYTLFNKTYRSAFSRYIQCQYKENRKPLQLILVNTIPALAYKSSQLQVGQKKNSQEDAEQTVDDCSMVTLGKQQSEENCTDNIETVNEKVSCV
Sequence of Serotonin 2 (5-HT2) receptor (Rattus norvegicus) (P30994 whole entry, looked up): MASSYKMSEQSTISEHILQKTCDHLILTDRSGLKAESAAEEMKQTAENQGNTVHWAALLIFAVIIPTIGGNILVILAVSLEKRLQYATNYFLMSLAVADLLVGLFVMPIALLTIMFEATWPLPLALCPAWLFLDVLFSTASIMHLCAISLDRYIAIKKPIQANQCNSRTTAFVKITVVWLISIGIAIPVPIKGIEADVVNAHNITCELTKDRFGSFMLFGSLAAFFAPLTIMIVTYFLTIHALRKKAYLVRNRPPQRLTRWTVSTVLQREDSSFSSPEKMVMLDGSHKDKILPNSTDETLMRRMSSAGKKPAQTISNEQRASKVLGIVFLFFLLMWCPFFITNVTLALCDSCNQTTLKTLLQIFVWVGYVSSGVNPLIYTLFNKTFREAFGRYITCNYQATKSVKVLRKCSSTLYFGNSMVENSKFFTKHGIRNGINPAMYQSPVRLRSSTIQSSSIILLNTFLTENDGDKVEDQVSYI

Row | SMILES | inhibition [1] [%] | inhibition [2] [%] | inhibition [3] [%] | activity at 0.03 µM ([4]; compound concentration 0.03 uM) | activity at 0.1 µM ([4]; compound concentration 0.1 uM) | activity at 0.3 µM ([4]; compound concentration 0.3 uM) | activity at 1 µM ([4]; compound concentration 1 uM) | activity at 3 µM ([4]; compound concentration 3 uM) | activity at 10 µM ([4]; compound concentration 10 uM) [%] | residual activity [5] [%] | residual activity [6] [%] | residual activity ([7]; Compound concentration 0.03 uM) [%] | residual activity ([7]; Compound concentration 0.1 uM) [%] | residual activity ([7]; Compound concentration 0.3 uM) [%] | residual activity ([7]; Compound concentration 1.0 uM) [%] | residual activity ([7]; Compound concentration 3.0 uM) [%] | residual activity ([7]; Compound concentration 10.0 uM) [%] | residual activity [8] [%] | residual activity [9] [%] | residual activity [10] [%]
1 | C[C@@]1(Cc2ccc(C#N)cc2)C(=O)N(c2cc(Cl)cc(Cl)c2)c2ncc(C(=O)NC3(c4nc(C5CCC5)no4)CC3)n21 [BI 9446] | -8.46 | 12.1 | 8.28 | – | – | – | – | – | – | – | – | – | – | – | – | – | – | – | – | –
2 | C[C@H](NC(=O)c1cnc2n1[C@](C)(Cc1ccc(C#N)cc1)C(=O)N2c1cc(Cl)c(F)c(Cl)c1)C(=O)NC1(c2ccccn2)CC1 [BI 1950] | – | – | – | 97% (not active) | 98% (not active) | 94% (not active) | 81% (not active) | 58% (not active) | 28 | 98 | 102 | 94 | 93 | 91 | 82 | 74 | 47 | 86 | 88 | 115
